For orientation: IC50 means the concentration at which inhibition is half-maximal.

Data on 13 compounds can be found in patent US20260347373A1, “HETEROCYCLIC COMPOUNDS, COMPOSITIONS THEREOF, AND METHODS OF TREATMENT THEREWITH” (BeOne Medicines I GmbH, priority 2023, published 2026).

SMILES strings stand for the structures.

The target in one test is WT KRAS (Homo sapiens, UniProt P01116). Briefly: KRAS WT Probe Displacement Assay (TR-FRET, GDP-loaded). The format is binding. Particulars: KRAS WT, read-out: KRAS^WT Probe Displacement Assay IC50. From the text:
(§1) The synthetic routes of probe 1 and 2, which have been disclosed in PCT/CN2022/070676, are hereby incorporated herein.
Background: Time-resolved FRET reads energy transfer from a long-lived donor to a nearby acceptor.

The next test addresses KRAS G12D (Homo sapiens, UniProt P01116, G12D). Put plainly: KRAS G12D Probe Displacement Assay (TR-FRET, GDP-loaded). The test is classed as binding. The following applies: KRAS G12D, read-out: KRAS^G12D Probe Displacement Assay IC50.
Source text: as §1

Chain of WT KRAS (P01116 1-188 isoform P01116-2): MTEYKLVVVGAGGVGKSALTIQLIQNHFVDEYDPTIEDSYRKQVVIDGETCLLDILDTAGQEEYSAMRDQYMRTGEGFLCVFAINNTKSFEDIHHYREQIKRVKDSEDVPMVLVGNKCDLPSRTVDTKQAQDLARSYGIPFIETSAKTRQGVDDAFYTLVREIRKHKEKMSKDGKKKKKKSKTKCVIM
Chain of KRAS G12D (P01116 1-188 isoform P01116-2 G12D): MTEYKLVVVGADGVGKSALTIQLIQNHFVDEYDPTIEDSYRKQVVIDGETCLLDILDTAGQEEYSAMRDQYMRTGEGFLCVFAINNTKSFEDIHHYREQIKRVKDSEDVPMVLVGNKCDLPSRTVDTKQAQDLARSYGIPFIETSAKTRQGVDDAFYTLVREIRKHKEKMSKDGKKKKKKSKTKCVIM

On to `Cc1cc(N)cc(-c2nc3c4c(nc(OC[C@]56CCCN5CC(F)(F)C6)nc4c2F)N2C[C@H]4CC[C@H](N4)[C@H]2CCO3)c1C(F)(F)F` [Example 34, 3-((6aR,7S,10R)-13-(((R)-2,2-difluorotetrahydro-1H-pyrrolizin-7a(5H)-yl)methoxy)-1-fluoro-5,6,6a,7,8,9,10,11-octahydro-4-oxa-3,11a,12,14,15-pentaaza-7,10-methanocyclohepta[4,5]cycloocta [1,2,3-de]naphthalen-2-yl)-5-methyl-4-(trifluoromethyl)aniline], for which the results for the IC50 at WT KRAS and on KRAS G12D were 3 to 1000 nM and 0.3 to 3 nM, respectively.

`Cc1cc(N)cc(-c2nc3c4c(nc(OCC5(CN6CC=CC6C6(O)CC6)CC5)nc4c2F)N2C[C@H]4CC[C@H](N4)[C@H]2CCO3)c1C(F)(F)F` (stereo partly drawn) [Example 162, 1-(1-((1-((((6aR,7S,10R)-2-(5-amino-3-methyl-2-(trifluoromethyl)phenyl)-1-fluoro-5,6,6a,7,8,9,10,11-octahydro-4-oxa-3,11a,12,14,15-pentaaza-7,10-methanocyclohepta[4,5]cycloocta[1,2,3-de]naphthalen-13-yl)oxy)methyl)cyclopropyl)methyl)-2,5-dihydro-1H-pyrrol-2-yl)cyclopropan-1-ol]: the IC50 on WT KRAS is 3 to 1000 nM; on KRAS G12D, under 0.3 nM.

With `Cc1cc(N)cc(-c2nc3c4c(nc(O[C@@H](C)[C@@H]5CCCN5C5CCOC5)nc4c2F)N2C[C@H]4CC[C@H](N4)[C@H]2CCO3)c1C(F)(F)F` (single isomer, unassigned) [Example 228], the IC50 on WT KRAS is 3 to 1000 nM; at KRAS G12D it was under 0.3 nM.

For the compound `CO[C@@H]1C[C@@H](C(C)Oc2nc3c4c(nc(-c5cc(N)cc(C)c5C(F)(F)F)c(F)c4n2)OCC[C@@H]2[C@@H]4CC[C@H](CN32)N4)N(C)C1` (single isomer, unassigned) [Example 144], the IC50 at WT KRAS was 3 to 1000 nM; on KRAS G12D, under 0.3 nM.

Consider `Cc1cc(N)cc(-c2nc3c4c(nc(OCC5(CN6C[C@H]7C[C@@H]6CO7)CC5)nc4c2F)N2C[C@H]4CC[C@H](N4)[C@H]2CCO3)c1C(F)(F)F` [Example 65, 3-((6aR,7S,10R)-13-((1-(((1R,4R)-2-oxa-5-azabicyclo[2.2.1]heptan-5-yl)methyl)cyclopropyl)methoxy)-1-fluoro-5,6,6a,7,8,9,10,11-octahydro-4-oxa-3,11a,12,14,15-pentaaza-7,10-methanocyclohepta[4,5]cycloocta [1,2,3-de]naphthalen-2-yl)-5-methyl-4-(trifluoromethyl)aniline], for which the IC50 on WT KRAS is 3 to 1000 nM; at KRAS G12D it was under 0.3 nM.

For `Cc1cc(N)cc(-c2nc3c4c(nc(OCC5(CN6C[C@@H](C)O[C@@H](C)C6)CC5)nc4c2F)N2C[C@H]4CC[C@H](N4)[C@H]2CCO3)c1C(F)(F)F` [Example 64, 3-((6aR,7S,10R)-13-((1-(((2S,6R)-2,6-dimethylmorpholino)methyl)cyclopropyl)methoxy)-1-fluoro-5,6,6a,7,8,9,10,11-octahydro-4-oxa-3,11a,12,14,15-pentaaza-7,10-methanocyclohepta[4,5]cycloocta [1,2,3-de]naphthalen-2-yl)-5-methyl-4-(trifluoromethyl)aniline], the IC50 at WT KRAS is 0.3 to 3 nM; at KRAS G12D it was under 0.3 nM.

Regarding `[2H]C([2H])([2H])N1CC/C(=C\F)C(C)(C([2H])([2H])Oc2nc3c4c(nc(-c5cc(N)cc(C)c5C(F)(F)F)c(F)c4n2)OCC[C@@H]2[C@@H]4CC[C@H](CN32)N4)C1` (single isomer, unassigned) [Example 242], the IC50 on WT KRAS is 3 to 1000 nM; on KRAS G12D, under 0.3 nM.

In the case of `Cc1cc(N)cc(-c2nc3c4c(nc(OCC56C[C@@H](F)CN5C[C@H](F)C6)nc4c2F)N2C[C@H]4CC[C@H](N4)[C@H]2CCO3)c1C(F)(F)F` [Example 36, 3-((6aR,7S,10R)-13-(((2R,6R)-2,6-difluorotetrahydro-1H-pyrrolizin-7a(5H)-yl)methoxy)-1-fluoro-5,6,6a,7,8,9,10,11-octahydro-4-oxa-3,11a,12,14,15-pentaaza-7,10-methanocyclohepta[4,5]cycloocta [1,2,3-de]naphthalen-2-yl)-5-methyl-4-(trifluoromethyl)aniline], the IC50 on WT KRAS was 3 to 1000 nM; at KRAS G12D, under 0.3 nM.

In the case of `Cc1cc(N)cc(-c2nc3c4c(nc(O[C@@H](C)[C@@H]5CCCN5C5CCOCC5)nc4c2F)N2C[C@H]4CC[C@H](N4)[C@H]2CCO3)c1C(F)(F)F` [Example 226, 3-((6aR,7S,10R)-1-fluoro-13-((S)-1-((S)-1-(tetrahydro-2H-pyran-4-yl)pyrrolidin-2-yl)ethoxy)-5,6,6a,7,8,9,10,11-octahydro-4-oxa-3,11a,12,14,15-pentaaza-7,10-methanocyclohepta[4,5]cycloocta[1,2,3-de]naphthalen-2-yl)-5-methyl-4-(trifluoromethyl)aniline], the figures for the IC50 at WT KRAS and at KRAS G12D were 3 to 1000 nM and under 0.3 nM, respectively.

As for `COC1CN(C)CC(C)(COc2nc3c4c(nc(-c5cc(N)cc(C)c5C(F)(F)F)c(F)c4n2)OCC[C@@H]2[C@@H]4CC[C@H](CN32)N4)C1` (stereo partly drawn) [Example 126, 3-((6aR,7S,10R)-1-fluoro-13-((5-methoxy-1,3-dimethylpiperidin-3-yl)methoxy)-5,6,6a,7,8,9,10,11-octahydro-4-oxa-3,11a,12,14,15-pentaaza-7,10-methanocyclohepta[4,5]cycloocta[1,2,3-de]naphthalen-2-yl)-5-methyl-4-(trifluoromethyl)aniline], the 50% inhibitory concentration (IC50) at WT KRAS lay within 3 to 1000 nM; on KRAS G12D it was 0.3 to 3 nM.

As to `Cc1cc(N)cc(-c2nc3c4c(nc(OC[C@@]5(C)CCCN(C6CCOCC6)C5)nc4c2F)N2C[C@H]4CC[C@H](N4)[C@H]2CCO3)c1C(F)(F)F` [Example 195, 3-((6aR,7S,10R)-1-fluoro-13-(((S)-3-methyl-1-(tetrahydro-2H-pyran-4-yl)piperidin-3-yl)methoxy)-5,6,6a,7,8,9,10,11-octahydro-4-oxa-3,11a,12,14,15-pentaaza-7,10-methanocyclohepta[4,5]cycloocta[1,2,3-de]naphthalen-2-yl)-5-methyl-4-(trifluoromethyl)aniline], the IC50 at WT KRAS is 0.3 to 3 nM; at KRAS G12D, under 0.3 nM.

Regarding `Cc1cc(N)cc(-c2nc3c4c(nc(OCC5(CN6CCC(O)(C(F)(F)F)CC6)CC5)nc4c2F)N2C[C@H]4CC[C@H](N4)[C@H]2CCO3)c1C(F)(F)F` [Example 114, 1-((1-((((6aR,7S,10R)-2-(5-amino-3-methyl-2-(trifluoromethyl)phenyl)-1-fluoro-5,6,6a,7,8,9,10,11-octahydro-4-oxa-3,11a,12,14,15-pentaaza-7,10-methanocyclohepta [4,5]cycloocta [1,2,3-de]naphthalen-13-yl)oxy)methyl)cyclopropyl)methyl)-4-(trifluoromethyl) piperidin-4-ol], the results for the IC50 at WT KRAS and at KRAS G12D were 0.3 to 3 nM and under 0.3 nM, respectively.

`Cc1cc(N)cc(-c2nc3c4c(nc(OCC5(CN6CCN(C7CC7)CC6)CC5)nc4c2F)N2C[C@H]4CC[C@H](N4)[C@H]2CCO3)c1C(F)(F)F` [Example 192, 3-((6aR,7S,10R)-13-((1-((4-cyclopropylpiperazin-1-yl)methyl)cyclopropyl)methoxy)-1-fluoro-5,6,6a,7,8,9,10,11-octahydro-4-oxa-3,11a,12,14,15-pentaaza-7,10-methanocyclohepta[4,5]cycloocta[1,2,3-de]naphthalen-2-yl)-5-methyl-4-(trifluoromethyl)aniline]: the IC50 is 0.3 to 3 nM at WT KRAS and under 0.3 nM on KRAS G12D.
